What all share (format): cell-based, human
Experiment [1] concerns PBMC. The experiment is described as follows: ELISpot IFN-γ assay with PBMC of Ad5-PfCA immunized volunteers (Example 1). The settings on record: threshold 40 SFC/million. The procedure:
In order to assess the pools for their ability to induce T-cell responses, specifically CD 8^+ responses, PBMC, 1 month post immunization were used, from the five volunteers in Table 1, in ELISpot assays. In these studies, IFN-γ activity was measured in response to exposure to the peptide pools. The assays were conducted essentially as described by Wang, et al., Proc. Natl. Acad. Sci. (U.S.A.), 98: 10817-22.
(§1) The stimulation of circulating antigen-specific T cell lymphocytes was evaluated by measurement of γ-IFN induction by ELISPOT. The ELISpot assay was conducted using thawed cryopreserved PBMC at 200 K cells per well. Pre-challenge cells were taken at day 21 and day 22 post AdPfCA vaccination. Cells were suspended in […] complete medium and were stimulated with AMA1 peptides suspended in […] of complete medium. Peptide concentrations used in assays was 10 μg/ml of each peptide tested. Cultures were incubated for 36 h at 37° C., 5% CO2. Depending on availability of cells, each PBMC sample was assayed in duplicate, triplicate, or quadruplicate and the number of IFN-γ-secreting cells recognized as spot-forming cells (SFC) was enumerated using an automated ELISpot reader. In duplicate assays, all values were used in analysis. For triplicate or quadruplicate assays, outliers were rejected if any single value contributed more than 50% of the standard deviation of the triplicate (or quadruplicate) and if its value was three-fold greater or less than the average of the remaining two (or three) values. The mean spot forming cells (SFCs) obtained in negative control wells were subtracted from the value of each test well from the same sample. Negative counts generated by this background subtraction were converted to zero. The mean spot number of the test sample was then calculated and expressed as SFC/million PBMCs. Values obtained with pre-vaccinated samples were subtracted from the post-vaccination values.

Experiment [2] relates to CD4+ and CD8+ T cells of PBMC. Put plainly: Intracellular cytokine staining (ICS) of CD4+ and CD8+ T cells. To be noted: for CD8^+ T cell IFN-γ response in ICS: HLA-matched volunteers, FIG. 1 upper panel. The procedure: ICS was performed on PBMCs with costimulatory antibodies anti-CD28 and […] (obtained from BD Bioscience™, San Jose, Calif.). The peptides were used at the same concentrations as in ELISpot assays. Stimulants were added t cells and incubated at 37° C. with 5% CO2 for 2 hr. Golgi Plug™ (Brefeldin A) (BD Bioscience™, San Jose, Calif.) was added at a final concentration of 0.6 μL/mL and incubated at 37° C. with 5% CO2 overnight. Cells were stained with anti-CD3 (Alexa Fluor 700™), anti-CD4 (PerCP™), and anti-CD8 Pacific Blue™ (obtained from BD Bioscience™, San Jose, Calif.). and 1 μg/mL of live/dead fixable blue dye, incubated and washed. Cells were permeabilized with Cytofix/Cytoperm™ solution (obtained from BD Bioscience™, San Jose, Calif.), incubated and washed. Cells were stained intracellularly with anti-CD3 ([…]), anti-CD4 (PerCP™), and anti-CD8 Pacific Blue™, anti-IFN-γ FITC, anti-TNF PE, and anti-IL2 APC, incubated and washed. Cells were resuspended and the entire available sample was acquired by flowcytometry. The gating strategy included progressively measuring total cells; viable cells only; lymphocytes; T cells; CD4^+ CD8^+ populations; and a specific cell type expressing a specific cytokine. Histograms were used to determine the total production of IFN-γ, IL2, and TNF for the CD4^+ and CD8^+ populations. Boolean gates were used to determine cells producing combinations of cytokines.
In these studies, T cells containing IFN-γ, IL2, or TNFα, were gated into different subsets: IFN-γ+, IL2+, TNFα−; IFN-γ+, IL2-, TNFα+; IFN-γ+, IL2+, TNFα+; or IFN-γ+, IL2−, TNFα− T cells, and stimulated with the predicted epitopes and their parent peptide pool. The frequency of CD8^+ T cells producing total IFN-γ was far greater than CD4^+ T cell responses (FIG. 1, upper panel), which were extremely low.

For experiment [3], the system named is CD8+ or CD4+ T-cell depleted PBMC. Put plainly: ELISpot IFN-γ assay after CD8+ or CD4+ T-cell depletion (Example 2, Table 6). To be noted: for CD4^+ depletion % change / CD8^+ Depletion % change / CD4^+ depletion, test / CD8^+ Depletion, test / CD4^+ depletion, control / CD8^+ Depletion, control: Vol. 1550-11; for CD4^+ depletion, test: CD4+ depleted; for CD8^+ Depletion, test: CD8+ depleted. The procedure: PBMC population depletion was conducted using anti-human CD4+ and anti-CD8^+ coated Dynabeads™ M-450 (Dynal, Great Neck, N.Y.) following the manufacturer's instructions. Mock depletion was done with Dynabeads coated with Sheep anti-mouse IgG. Flow cytometry confirmed that T-cell subset depletions were >99% in all experiments. The data is presented as the % effect (decrease) in activity after T cell subset depletion. […]
The results of this study, summarized in Table 6, identified other CD8^+ epitopes, associated specific HLA class I genes.

Experiment [4] has as its system PBMC. The experiment is described as follows: ELISpot IFN-γ assay with PBMC of AdPfCA / DNA-primed volunteers (Example 2). The settings on record: 12 wk post challenge.
From the text: To more clearly define immunological active regions of AMA1, PBMCs were isolated from AMA1 immunized volunteers. Two groups of volunteers, i.e., Gp 1 (from example 1, above) and Gp2, received 2×10^10 particle units of AdPfCA (NMRC-M3V-Ad-PfCA, NMRC+Multi-antigen Multi-stage, Malaria Vaccine+Adenovector+P. falciparum CSP & AMA1 antigens). The vaccine is a combination of two separate recombinant Ad5 constructs, one expressing full length CSP and the other expressing full length apical membrane antigen 1 (AMA1). AdPfCA expressed the AMA1 regions A1 through A12. Twenty-eight (28) days later, PBMC's were collected.
In a third group (termed preCh in FIG. 7 and FIG. 8), fifteen volunteers were primed with three doses (2 mg/dose) with one month between doses. Sixteen weeks after the final DNA priming dose, each volunteer received 2×10^10 particle units of AdPfCA. PBMC's were collected on day 22-23 after receiving AdPfCA. The region of the AMA gene expressed by the DNA expression plasmid is also illustrated in FIG. 6. The DNA vaccine expressed approximately half of the A1 region of AMA1, the entire regions of A2 through A10 and a portion of A11. As in Gp 1 and Gp 2, AdPfCA expressed the AMA1 regions A1 through A12.
as §1
In a further study, volunteers were immunized with AdCA. […]

The source of these data is patent US20110117120A1, “Plasmodium falciparum HLA class I restricted T-cell epitopes” (priority 2009, published 2011).

“Also recorded” adds a separate entry of the source.

Regarding REHPKEYEYPLHQEH [Ap1-12], the “IFN-γ ELISpot activity of individual 15-mer peptide” value in experiment [1] (Volunteer 002) came to 66 SFC/10^6. The “IFN-γ ELISpot activity of individual 15-mer peptide” value in experiment [1] (Volunteer 005) was 118 SFC/10^6. Moreover, in experiment [2] (v001 and v005, FIG. 3), the “CD4^+ versus CD8^+ T cell IFN-γ response (ICS and ELISpot depletion, words)” value is “strongly recognized by CD8^+ T cells; also recorded: induced both CD4^+ and CD8^+ T cell responses”. In experiment [3] (4 wk post challenge), the “CD4^+ depletion % change” value was found to be 78%; the “CD8^+ Depletion % change” value was found to be 70%; the “CD4^+ depletion, test” value was 28 SFC/10^6; the “CD8^+ Depletion, test” value came out at 37 SFC/10^6. In experiment [3] (4 wk post challenge), the “CD4^+ depletion, control” value is listed as 126 SFC/10^6 and the “CD8^+ Depletion, control” value amounted to 126 SFC/10^6. In experiment [3] (Pre-challenge), the “CD4^+ depletion % change” value worked out at 59%; the “CD8^+ Depletion % change” value was 49%; the “CD4^+ depletion, test” value was found to be 67 SFC/10^6; the “CD8^+ Depletion, test” value came out at 83 SFC/10^6. Besides, in experiment [3] (Pre-challenge), the “CD4^+ depletion, control” value is listed as 161 SFC/10^6 and the “CD8^+ Depletion, control” value was found to be 161 SFC/10^6. In addition, the “reduction in ELISpot response after depletion of CD8^+ T-cells” value in experiment [3] (summary of Table 6) is given as 49-66%.

Take “KSHGKGYNW (listed as Plasmodium falciparum)”: the “Unfract. PBMC” value in experiment [4] (Vol. 1550-10) worked out at 159 SFC/10^6; in experiment [4] (Vol. 1550-18), 181 SFC/10^6.

For “NEFPAIDLF (listed as Plasmodium falciparum) [Epitope 2]”, the “CD8^+ T cell IFN-γ response in ICS” value in experiment [2] is on record as “equal or more CD8^+ IFN-γ than the parent peptide pool”.

As to “YKSHGKGYNW (listed as Plasmodium falciparum)”, the “Unfract. PBMC” value was found to be 144 SFC/10^6 in experiment [4] (Vol. 1550-10) and 271 SFC/10^6 in experiment [4] (Vol. 1550-18).

In the case of TLDEMRHFY [Epitope 8], the “CD8^+ T cell IFN-γ response in ICS” value in experiment [2] is reported as “equal or more CD8^+ IFN-γ than the parent peptide pool”.

Consider “RYKSHGKGY (listed as Plasmodium falciparum) [Epitope 14]”, for which, in experiment [2], the “CD8^+ T cell IFN-γ response in ICS” value is listed as “very weak CD8^+ IFN-γ responses”. Also, the “multifunctional CD8^+ T cell responses in ICS” value in experiment [2] (v008 and v012, any two of IFN-γ, IL-2, TNF-α, FIG. 1 lower panel) is listed as “did not appear to induce multifunctional responses”.

For “HPKEYEYPL (listed as Plasmodium falciparum) [Epitope 9]”, the “CD8^+ T cell IFN-γ response in ICS” value in experiment [2] is reported as “equal or more CD8^+ IFN-γ than the parent peptide pool”.
